Laboratory results as given in US9006283B2, “Methods of modifying amyloid β oligomers using non-peptidic compounds” (Acumen Pharmaceuticals, Inc., priority 2007, dated 2015).
Blank lines part the entries; values can stand above or below the compound they belong to.

Tests used:
[1] = target: Aβ1-42 monomer assembly into Aβ oligomers (ADDLs) (Homo sapiens (Human), UniProt P05067); test: FRET assay of Aβ1-42 oligomer (ADDL) assembly inhibition; format: biochemical
Source text: Fluorescence (or Förster) Resonance Energy Transfer (FRET) is a distance-dependent, non-radiative transfer of energy in which the de-excitation of one fluorophore (donor) is coupled to excitation of another fluorophore (acceptor). FRET occurs if (1) the quantum of energy emitted by a donor fluorophore corresponds to an acceptor fluorophore's excitation energy, (2) the orientations of donor and acceptor transition dipoles are nearly parallel and (3) the donor fluorescent emission spectrum overlaps the acceptor absorption spectrum.
In this assay, assembly of Aβ1-42 oligomer formation is monitored by FRET using N-terminal conjugates of fluorescein-Aβ1-42 as both the donor and acceptor fluorophore (fluorescein-fluorescein Ro˜45 Å). Aβ1-42 monomers assembling into oligomeric species results in a decrease of fluorescence as the fluorescein labeled Aβ1-42 peptides become proximal to each other and FRET efficiency increases. Inhibition of Aβ1-42 assembly is observed as the absence or attenuation of fluorescein quenching.
FRET and FP assays are performed in 384-well Corning Non-Binding Surface, black, opaque microtiter plates, and the assay buffer consists of 50 mM MOPS-Tris (pH 8.0) with 100 mM MgCl2. […] ADDL assembly is monitored on a Tecan GENios Pro plate reader, exciting at a wavelength of 485 nm and detecting emission at a wavelength of 515 nm. […]

[2] = cited from earlier work
[3] = cited from earlier work; remark: listed apart in the source

Aβ1-42 monomer assembly into Aβ oligomers (ADDLs), sequence (P05067 672-713): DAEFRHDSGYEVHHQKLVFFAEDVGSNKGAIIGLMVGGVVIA

inhibition of Aβ1-42 monomer assembly into Aβ oligomers ([1]; FIG. 2, standard FRET assay conditions of Example 1): inability
SMILES: NCCCS(=O)(=O)O [Alzhemed, 3-amino-1-propanesulfonic acid]
cognitive decline ([2]; 20 month open-label extension of Phase II trial, some patients with mild AD): slowed cognitive decline | efficacy ([2]; blinded phase of the study): no efficacy was observed

SMILES: Oc1c(I)cc(Cl)c2cccnc12 [Clioquinol]
patients' cognitive ability ([3]; compared to untreated patients): stabilize | Aβ1-42 levels in plasma ([3]; patients' plasma): lower

inhibition of Aβ1-42 oligomer assembly ([1]; FIG. 1, Test Compound A ranging from 0.05 to 3 mM (0.05 to 3 μM in figure legend)): dose dependent inhibition
SMILES: CCOC(=O)c1c(NC(=O)C(=O)N/N=C/c2ccccc2O)sc2c1CCC(C)C2 (stereo not drawn) [Compound 4, 2-{[1-(2-Hydroxyphenyl)-meth-(E)-ylidene-hydrazinooxalyl]-amino}-6-methyl-4,5,6,7-tetrahydro-benzo[b]thiophene-3-carboxylic acid ethyl ester]
